Laboratory results taken from patent US10654834B2 (Venenum Biodesign, LLC, priority 2016, dated 2020).
Counter-ions that a name gives are not always drawn.

Legend:
mouse TGR5 receptor = molecular target: T1, mouse TGR5 receptor (Mus musculus, UniProt Q80SS6); test: Mouse TGR5 luminescent cAMP production assay (HEK293-EBNA cells, DiscoveRx cAMP XS+ kit); format: cell-based; conditions: HEK293-EBNA cells overexpressing mouse TGR5, luminescent cAMP assay; read-out: Mouse TGR5 Lum. cAMP Activity (EC50)
T1 construct: host or cells: HEK293-EBNA (293 c18, ATCC CRL10852)
T1 sequence (Q80SS6 1-329): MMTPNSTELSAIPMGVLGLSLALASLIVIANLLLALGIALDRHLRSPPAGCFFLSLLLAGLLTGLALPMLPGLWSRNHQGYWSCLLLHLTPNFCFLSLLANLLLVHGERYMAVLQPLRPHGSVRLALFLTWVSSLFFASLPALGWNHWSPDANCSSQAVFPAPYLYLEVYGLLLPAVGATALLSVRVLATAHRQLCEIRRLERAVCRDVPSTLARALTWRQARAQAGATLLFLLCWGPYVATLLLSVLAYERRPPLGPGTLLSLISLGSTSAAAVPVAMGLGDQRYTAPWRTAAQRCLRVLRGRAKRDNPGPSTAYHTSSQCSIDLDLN
Description: Mouse TGR5 cAMP Production Assay
Compounds of the present invention were evaluated for their ability to induce cAMP production in HEK-EBNA cells overexpressing the mouse TGR5 receptor. Human embryonic kidney cells (HEK293-EBNA) stably expressing mouse TGR5 receptor were established using the following procedure. Specifically, a commercially obtained gene encoding mouse TGR5 (accession number BC116914) from Thermo Scientific (Waltham, Mass.) was cloned into an episomal expression vector. The resulting expression plasmid was then transfected into 293 c18 (ATCC® CRL10852™) cells, which express the Epstein-Barr virus nuclear antigen EBNA1 and can support the replication of episomal vectors. Selection for the plasmid was maintained with Hygromycin B. Cells were cultured and maintained in DMEM (Sigma; cat #6429) supplemented with 10% Fetal Bovine Serum, 1% penicillin/streptomycin, 2 mM L-alanine L-glutamine (GlutaMax), and 250 μg/mL Hygromycin.
We developed two cAMP production assays.
(i) Luminescent cAMP Production Assay
In this first cAMP production assay, the cAMP production was measured using DiscoveRx's cAMP XS+ kit following the manufacturer's recommended protocol. Briefly, HEK293-EBNA cells stably overexpressing mouse TGR5 were harvested using non-enzymatic cell dissociation buffer (Sigma-Aldrich, St. Louis, Mo.), spun down, then resuspended in serum-free DMEM with 500 μM IBMX at a density of 1.25×10^6 cells/mL. 500 μL of cAMP antibody solution was added to 500 μL of cell suspension and incubated at room temperature for 20 min.
Test compounds were serially diluted (half-log dilutions) in DMSO and then further diluted 1:50 in PBS, 10 mM HEPES buffer. 2 μL of serially diluted compound was added to a 384-well low volume plate (Greiner cat #784075) and centrifuged briefly. 2 μl of the cell/cAMP antibody mixture was then added to each compound-containing well and allowed to incubate at room temperature for one (1) hour. Following incubation, the XS+ kits' ED/Lysis/CL Substrate Working Solution was prepared following the manufacturer's recommended protocol and 4 μL was added to each well of the plate. The plate was then incubated for one (1) hour at room temperature. Following incubation, 4 μL of (Enzyme Acceptor) EA reagent was added to the plate and allowed to incubate overnight at room temperature. Luminescent signal was then detected using the Viewlux instrument (PerkinElmer, Waltham, Mass.).
In Table 52, EC50 values for both human and mouse cells were determined according to the TGR5 cAMP assays described above. […]

human TGR5 receptor = molecular target: T2, human TGR5 receptor (Homo sapiens, UniProt Q8TDU6); test: Human TGR5 cAMP production assay (hTGR5-CHO cells, DiscoveRx cAMP XS+ kit); format: cell-based; conditions: luminescent cAMP assay, read-out: Human TGR5 Lum. cAMP Activity (EC50)
T2 construct: host or cells: CHO-K1 (hTGR5-CHO)
T2 sequence (Q8TDU6 1-330): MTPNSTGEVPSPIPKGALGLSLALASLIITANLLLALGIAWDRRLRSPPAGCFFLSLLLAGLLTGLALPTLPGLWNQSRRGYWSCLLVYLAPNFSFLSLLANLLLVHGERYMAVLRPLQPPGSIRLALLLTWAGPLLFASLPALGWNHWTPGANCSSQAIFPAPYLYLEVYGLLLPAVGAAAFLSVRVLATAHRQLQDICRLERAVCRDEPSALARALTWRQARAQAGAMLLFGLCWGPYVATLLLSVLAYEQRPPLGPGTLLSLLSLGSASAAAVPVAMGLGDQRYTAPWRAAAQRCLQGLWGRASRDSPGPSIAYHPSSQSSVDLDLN
Outline: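 EC50 values come from luminescent enzyme-complementation cAMP detection, read after overnight incubation. Beforehand, hTGR5-expressing CHO-K1 cells with IBMX and anti-cAMP antibody were exposed 1 h at room temperature to serially diluted (half-log) compounds.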

EC50 (mouse TGR5 receptor) | EC50 (human TGR5 receptor) | Structure (SMILES)
< 100 nM | 100 to 999 nM | CC(=O)N(C)CC1CCN(c2cc(N3CCC[C@H]3C(=O)NCCc3ccc(C#N)cc3)nc(C(F)(F)F)n2)CC1 [Compound 54, (S)-N-(4-cyanophenethyl)-1-(6-(4-((N-methylacetamido)methyl)piperidin-1-yl)-2-(trifluoromethyl)pyrimidin-4-yl)pyrrolidine-2-carboxamide]
< 100 nM | 100 to 999 nM | COCC(=O)N1CCN(c2cc(N3CCC[C@@H](C(=O)NCCc4ccc(C(F)(F)F)cc4)C3)nc(C(F)(F)F)n2)CC1 [Compound 337, (R)-1-(6-(4-(2-methoxyacetyl)piperazin-1-yl)-2-(trifluoromethyl)pyrimidin-4-yl)-N-(4-(trifluoromethyl)phenethyl)piperidine-3-carboxamide]
< 100 nM | 1000 to 30000 nM | CC(C)(C)OC(=O)N1CCC(Nc2cc(N3CCC[C@H]3C(=O)NCCc3ccc(C#N)cc3)nc(C(F)(F)F)n2)CC1 [Compound 15]
100 to 999 nM | 100 to 999 nM | CCOc1ccc(-c2cc(N3CCC[C@H]3C(=O)NCCc3ccc(C#N)cc3)nc(C(F)(F)F)n2)cc1 [Compound 151, (S)-N-(4-cyanophenethyl)-1-(6-(4-ethoxyphenyl)-2-(trifluoromethyl)pyrimidin-4-yl)pyrrolidine-2-carboxamide]
100 to 999 nM | 100 to 999 nM | CC(C)(C)OC(=O)N1CCC(Oc2cc(N3CC[C@H]3C(=O)NCCc3ccc(C#N)cc3)nc(C(F)(F)F)n2)CC1 [Compound 243, (S)-tert-butyl 4-((6-(2-((4-cyanophenethyl)carbamoyl)azetidin-1-yl)-2-(trifluoromethyl)pyrimidin-4-yl)oxy)piperidine-1-carboxylate]
100 to 999 nM | 100 to 999 nM | CN(C)CCN1CCN(c2cc(N3CCC[C@@H](C(=O)NCCc4ccc(C#N)cc4)C3)nc(C(F)(F)F)n2)CC1 [Compound 317, (R)-N-(4-cyanophenethyl)-1-(6-(4-(2-(dimethylamino)ethyl)piperazin-1-yl)-2-(trifluoromethyl)pyrimidin-4-yl)piperidine-3-carboxamide]
100 to 999 nM | 100 to 999 nM | O=C(NCCc1ccc(C(F)(F)F)cc1)[C@@H]1CCCN1c1cc(-c2ccncc2)nc(C(F)(F)F)n1 [Compound 140, (S)-1-(6-(pyridin-4-yl)-2-(trifluoromethyl)pyrimidin-4-yl)-N-(4-(trifluoromethyl)phenethyl)pyrrolidine-2-carboxamide]
< 100 nM | 100 to 999 nM | N#Cc1ccc(CCNC(=O)C2CCN2c2cc(-c3ccncc3)nc(C(F)(F)F)n2)cc1 (stereo not shown) [Compound 307, N-(4-cyanophenethyl)-1-(6-(pyridin-4-yl)-2-(trifluoromethyl)pyrimidin-4-yl)azetidine-2-carboxamide]
100 to 999 nM | < 100 nM | COCC1CCN(c2cc(N3CC[C@H]3C(=O)NCCc3ccc(C#N)cc3)nc(C(F)(F)F)n2)CC1 [Compound 222, (S)-N-(4-cyanophenethyl)-1-(6-(4-(methoxymethyl)piperidin-1-yl)-2-(trifluoromethyl)pyrimidin-4-yl)azetidine-2-carboxamide]
100 to 999 nM | 100 to 999 nM | Cc1ccc(-c2cc(N3CCC[C@H]3C(=O)NCCc3ccc(C#N)cc3)nc(C(F)(F)F)n2)cc1 [Compound 143, (S)-N-(4-cyanophenethyl)-1-(6-(p-tolyl)-2-(trifluoromethyl)pyrimidin-4-yl)pyrrolidine-2-carboxamide]
100 to 999 nM | 100 to 999 nM | N#Cc1ccc(CCNC(=O)[C@@H]2CCCN2c2cc(Oc3ccccc3)nc(C(F)(F)F)n2)cc1 [Compound 43, (S)-N-(4-cyanophenethyl)-1-(6-phenoxy-2-(trifluoromethyl)pyrimidin-4-yl)pyrrolidine-2-carboxamide]
100 to 999 nM | 100 to 999 nM | COc1ccc(-c2cc(N3CCC[C@H]3C(=O)NCCc3ccc(C#N)cc3)nc(C(F)(F)F)n2)cc1OC [Compound 149, (S)-N-(4-cyanophenethyl)-1-(6-(3,4-dimethoxyphenyl)-2-(trifluoromethyl)pyrimidin-4-yl)pyrrolidine-2-carboxamide]
100 to 999 nM | 100 to 999 nM | N#Cc1ccc(CCNC(=O)[C@@H]2CCCN2c2cc(-c3ccccc3)nc(C(F)(F)F)n2)cc1 [Compound 144, (S)-N-(4-cyanophenethyl)-1-(6-phenyl-2-(trifluoromethyl)pyrimidin-4-yl)pyrrolidine-2-carboxamide]
100 to 999 nM | 1000 to 30000 nM | Cn1ccc2cc(-c3cc(N4CCC[C@H]4C(=O)NCCc4ccc(C#N)cc4)nc(C(F)(F)F)n3)ccc21 [Compound 169, (S)-N-(4-cyanophenethyl)-1-(6-(1-methyl-1H-indol-5-yl)-2-(trifluoromethyl)pyrimidin-4-yl)pyrrolidine-2-carboxamide]
100 to 999 nM | 100 to 999 nM | N#Cc1ccc(CCNC(=O)[C@@H]2CCN2c2cc(N3CCC(CN)CC3)nc(C(F)(F)F)n2)cc1 [Compound 245, (S)-(1-(6-(4-aminomethylpiperidin-1-yl)-2-(trifluoromethyl)pyrimidin-4-yl)-N-(4-cyanophenethyl)azetidine-2-carboxamide hydrochloride]
< 100 nM | 1000 to 30000 nM | CC(=O)N1CCC(Nc2cc(N3CCC[C@H]3C(=O)NCCc3ccc(C#N)cc3)nc(C(F)(F)F)n2)CC1 [Compound 53, (S)-1-(6-((1-acetylpiperidin-4-yl)amino)-2-(trifluoromethyl)pyrimidin-4-yl)-N-(4-cyanophenethyl)pyrrolidine-2-carboxamide]
< 100 nM | 100 to 999 nM | O=C(NCCc1ccc(C(F)(F)F)cc1)[C@@H]1CCCN(c2cc(NCCN3CCOCC3)nc(C(F)(F)F)n2)C1 [Compound 325, (R)-1-(6-((2-morpholinoethyl)amino)-2-(trifluoromethyl)pyrimidin-4-yl)-N-(4-(trifluoromethyl)phenethyl)-piperidine-3-carboxamide]
100 to 999 nM | 100 to 999 nM | O=C(NCCc1ccc(C(F)(F)F)cc1)[C@@H]1CCCN(c2cc(OC3CCOCC3)nc(C(F)(F)F)n2)C1 [Compound 335, (R)-1-(6-((tetrahydro-2H-pyran-4-yl)oxy)-2-(trifluoromethyl)pyrimidin-4-yl)-N-(4-(trifluoromethyl)-phenethyl)piperidine-3-carboxamide]
< 100 nM | 100 to 999 nM | N#Cc1ccc(CCNC(=O)[C@@H]2CCCN2c2cc(-c3ccc(C#N)cc3)nc(C(F)(F)F)n2)cc1 [Compound 145, (S)-N-(4-cyanophenethyl)-1-(6-(4-cyanophenyl)-2-(trifluoromethyl)pyrimidin-4-yl)pyrrolidine-2-carboxamide]
< 100 nM | 100 to 999 nM | O=C(NCCc1ccc(C(F)(F)F)cc1)[C@@H]1CCCN(c2cc(NC3CCOCC3)nc(C(F)(F)F)n2)C1 [Compound 326, (R)-1-(6-((tetrahydro-2H-pyran-4-yl)amino)-2-(trifluoromethyl)-pyrimidin-4-yl)-N-(4-(trifluoromethyl)phenethyl)piperidine-3-carboxamide]
